# Measurements from US11278526B2, “Compounds and methods for treating lupus” (RECEPTOS LLC, priority 2016, dated 2022).
# “Also recorded” adds a separate entry of the source.
# Legend:
# splenocytes = assay: Splenocyte counts and immunophenotyping of spleen cell subtypes; type: in vivo, mice; details: NZBWF1 mice; for Total splenocyte counts relative to vehicle: 42 weeks; for Percent Reduction vs Vehicle: Activated CD4 + T cells / Percent Reduction vs Vehicle: CD4 + T cells / Percent Reduction vs Vehicle: CD8 + T cells / Percent Reduction vs Vehicle: CD11b + Ly6C^hi monocytes / Percent Reduction vs Vehicle: CD19 + B cells / Percent Reduction vs Vehicle: Follicular B cells / Percent Reduction vs Vehicle: Germinal Center B cells / Percent Reduction vs Vehicle: Marginal Zone B cells / Percent Reduction vs Vehicle: Marginal Zone Progenitor B cells / Percent Reduction vs Vehicle: Naive CD4 + T cells / Percent Reduction vs Vehicle: Plasma cells / Percent Reduction vs Vehicle: Tfh cells / Percent Reduction vs Vehicle: Total splenocytes / Percent Reduction vs Vehicle: Treg cells / Percent Reduction vs Vehicle: pDC: spleen
# Description: (§1) To determine the effects of compound 148 on inflammatory infiltrate in the spleen, spleens were weighed at 42 weeks. […] Splenocyte suspensions were then prepared. RBCs were lysed and splenocytes were counted.
# Plasmacytoid dendritic cells (pDC) express IFNAR1 (Interferon alpha receptor 1), which amplifies the proinflammatory response to type 1 interferons (e.g., IFNα) that are associated with lupus. IFNAR activity is considered to be an important modulator of signal strength and duration in pDC and subsequent activation of T and B cells in the inflammatory response. pDC counts were measured at termination.
# To determine the effects of compound 5 on inflammatory infiltrate in the spleen, spleens were weighed at 42 weeks. […] Splenocyte suspensions were prepared for all three doses. RBCs were lysed and splenocytes were counted.
# NZBWF1 mice [1] = assay: Kidney lesion histology scoring (glomerular, tubular and interstitial lesions); type: in vivo; details: for Tubular and interstitial lesions: 0.3, 1.0, 3.0 mg/kg PO QD
# Source text: Kidney lesions are another indicator of SLE progression. Kidney slides from test mice were stained with H&E and PAS, to evaluate interstitial infiltrates, tubular atrophy, and interstitial fibrosis (collectively, “tubular and interstitial lesions”), mesangial expansion, endocapillary and extracapillary proliferation, glomerular deposits, (collectively, “glomerular lesions”). Each lesion subtype was scored using a 4 point scale: 0=not present, 1=mild, 2=moderate and 3=severe. Average scores were calculated by multiplying the incidence of each grade by the value of the grade for each of the seven lesions and then adding the scores for the group. Thus, an incidence of 3 animals for grade 3 of a lesion equals a score of 9. The scores were then divided by the number of animals scored in the group.
# All slides were scored blind by assigning a random number to each animal and then affixing a temporary label with the random number to the slides. Scores were recorded using Graham StarTox software, version 3.1.0. The StarTox software has a setting that limits the screen display to the random number only, without group or animal number information for use while reading the slides.
# (§2) As in Example 5, left kidneys were weighed (FIG. 43) following termination at 42 weeks.
# NZBWF1 mice [2] = assay: Kidney weight at termination (42 weeks); type: in vivo
# Source text: In SLE, inflammatory infiltrates known as Tertiary Lymphatic Tissue (TLT) accumulate in the kidney and spleen, among other tissues. As an indirect measure of disease progression, right and left kidneys were weighed (FIGS. 4A-4B) following termination at 42 weeks.
# as §2
# NZBWF1 mice [3] = assay: Proteinuria scores (urine dip sticks) in NZBWF1 SLE mouse model; type: in vivo; details: for Proteinuria scores relative to vehicle: 3.0 mg/kg PO QD; for Proteinuria scores compared to vehicle: 0.3, 1.0 and 3.0 mg/kg PO QD
# Source text: Six groups of NZBWF1 mice (Jackson Laboratories, stock #100008) were used in the study and were acclimated to the research facility for 7 weeks prior to the start of the study. Weekly measurements of proteinuria (excess serum proteins present in the urine) and body weight began at 20 weeks of age. At 23 weeks of age, the mice were assigned to groups in a balanced manner in order to achieve average body weight and average proteinuria measurements across the groups. One “naive” group consisting of 10 mice was euthanized at the start of treatment and used as a source of tissue for analysis. Treatment began at 23 weeks of age.
# The three groups dosed with compound 148 received 0.3, 1.0, and 3.0 mg/kg PO QD, respectively (20 mice per dosage). Surviving animals were sacrificed at 42 weeks. […] Disease development was evaluated as disclosed in the following examples.
# High levels of proteinuria are a strong indicator of SLE. […] Proteinuria was expressed as a score from 0 to 4 (0=no protein; 1=traces of protein (<30 mg/dL); 2=30-100 mg/dL; 3=100-500 mg/dL; 4=>500 mg/dL).
# As in Example 3, proteinuria was measured weekly beginning at 20 weeks using urine dip sticks (Roche Diagnostics Chemstrip 2GP, cat. no. 11895397160, per manufacturer's protocol). Proteinuria was expressed as a score from 0 to 4 (0=no protein; 1=traces of protein (<30 mg/dL); 2=30-100 mg/dL; 3=100-500 mg/dL; 4=>500 mg/dL). […] (In this and the following experiments, the number of mice per group was approximately 20, and statistics were determined by one-way ANOVA with Dunnett's comparison.)
# NZBWF1 mice [4] = assay: Spleen weight at 42 weeks; type: in vivo
# Description: as §1
# To determine the effects of compound 5 on inflammatory infiltrate in the spleen, spleens were weighed at 42 weeks. […] The 3 mg/kg dose of compound 5 trended lower indicating fewer inflammatory infiltrates in this organ. Splenocyte suspensions were prepared for all three doses. RBCs were lysed and splenocytes were counted.
# [5] = 3.0 mg/kg PO QD (compound 148 study)
structure (smiles),measurement,setting,value
"CC(C)Oc1ccc(-c2nc(-c3cccc4c3CC[C@@H]4NCCO)no2)cc1C#N [compound 5, (S)-5-(3-(1-(2-hydroxyethylamino)-2,3-dihydro-1H-inden-4-yl)-1,2,4-oxadiazol-5-yl)-2-isopropoxy benzonitrile]",Total splenocyte counts relative to vehicle,"splenocytes; all groups 0.3, 1.0, 3.0 mg/kg PO QD (compound 5 study)",reduced
same,Percent Reduction vs Vehicle: Activated CD4 + T cells,splenocytes; 0.3 mg/kg PO QD,46%
same,Percent Reduction vs Vehicle: CD4 + T cells,splenocytes; 0.3 mg/kg PO QD,51%
same,Percent Reduction vs Vehicle: CD8 + T cells,splenocytes; 0.3 mg/kg PO QD,46%
same,Percent Reduction vs Vehicle: CD11b + Ly6C^hi monocytes,splenocytes; 0.3 mg/kg PO QD,−17%
same,Percent Reduction vs Vehicle: CD19 + B cells,splenocytes; 0.3 mg/kg PO QD,43%
same,Percent Reduction vs Vehicle: Follicular B cells,splenocytes; 0.3 mg/kg PO QD,43%
same,Percent Reduction vs Vehicle: Germinal Center B cells,splenocytes; 0.3 mg/kg PO QD,46%
same,Percent Reduction vs Vehicle: Marginal Zone B cells,splenocytes; 0.3 mg/kg PO QD,20%
same,Percent Reduction vs Vehicle: Marginal Zone Progenitor B cells,splenocytes; 0.3 mg/kg PO QD,75%
same,Percent Reduction vs Vehicle: Naive CD4 + T cells,splenocytes; 0.3 mg/kg PO QD,73%
same,Percent Reduction vs Vehicle: Plasma cells,splenocytes; 0.3 mg/kg PO QD,50%
same,Percent Reduction vs Vehicle: Tfh cells,splenocytes; 0.3 mg/kg PO QD,35%
same,Percent Reduction vs Vehicle: Total splenocytes,splenocytes; 0.3 mg/kg PO QD,35%
same,Percent Reduction vs Vehicle: Treg cells,splenocytes; 0.3 mg/kg PO QD,37%
same,Percent Reduction vs Vehicle: pDC,splenocytes; 0.3 mg/kg PO QD,49%
same,Percent Reduction vs Vehicle: Activated CD4 + T cells,splenocytes; 1.0 mg/kg PO QD,72%
same,Percent Reduction vs Vehicle: CD4 + T cells,splenocytes; 1.0 mg/kg PO QD,75%
same,Percent Reduction vs Vehicle: CD8 + T cells,splenocytes; 1.0 mg/kg PO QD,77%
same,Percent Reduction vs Vehicle: CD11b + Ly6C^hi monocytes,splenocytes; 1.0 mg/kg PO QD,34%
same,Percent Reduction vs Vehicle: CD19 + B cells,splenocytes; 1.0 mg/kg PO QD,69%
same,Percent Reduction vs Vehicle: Follicular B cells,splenocytes; 1.0 mg/kg PO QD,66%
same,Percent Reduction vs Vehicle: Germinal Center B cells,splenocytes; 1.0 mg/kg PO QD,57%
same,Percent Reduction vs Vehicle: Marginal Zone B cells,splenocytes; 1.0 mg/kg PO QD,63%
same,Percent Reduction vs Vehicle: Marginal Zone Progenitor B cells,splenocytes; 1.0 mg/kg PO QD,88%
same,Percent Reduction vs Vehicle: Naive CD4 + T cells,splenocytes; 1.0 mg/kg PO QD,91%
same,Percent Reduction vs Vehicle: Plasma cells,splenocytes; 1.0 mg/kg PO QD,66%
same,Percent Reduction vs Vehicle: Tfh cells,splenocytes; 1.0 mg/kg PO QD,51%
same,Percent Reduction vs Vehicle: Total splenocytes,splenocytes; 1.0 mg/kg PO QD,50%
same,Percent Reduction vs Vehicle: Treg cells,splenocytes; 1.0 mg/kg PO QD,58%
same,Percent Reduction vs Vehicle: pDC,splenocytes; 1.0 mg/kg PO QD,72%
same,Percent Reduction vs Vehicle: Activated CD4 + T cells,splenocytes; 3.0 mg/kg PO QD,80%
same,Percent Reduction vs Vehicle: CD4 + T cells,splenocytes; 3.0 mg/kg PO QD,81%
same,Percent Reduction vs Vehicle: CD8 + T cells,splenocytes; 3.0 mg/kg PO QD,75%
same,Percent Reduction vs Vehicle: CD11b + Ly6C^hi monocytes,splenocytes; 3.0 mg/kg PO QD,28%
same,Percent Reduction vs Vehicle: CD19 + B cells,splenocytes; 3.0 mg/kg PO QD,74%
same,Percent Reduction vs Vehicle: Follicular B cells,splenocytes; 3.0 mg/kg PO QD,72%
same,Percent Reduction vs Vehicle: Germinal Center B cells,splenocytes; 3.0 mg/kg PO QD,64%
same,Percent Reduction vs Vehicle: Marginal Zone B cells,splenocytes; 3.0 mg/kg PO QD,54%
same,Percent Reduction vs Vehicle: Marginal Zone Progenitor B cells,splenocytes; 3.0 mg/kg PO QD,85%
same,Percent Reduction vs Vehicle: Naive CD4 + T cells,splenocytes; 3.0 mg/kg PO QD,88%
same,Percent Reduction vs Vehicle: Plasma cells,splenocytes; 3.0 mg/kg PO QD,70%
same,Percent Reduction vs Vehicle: Tfh cells,splenocytes; 3.0 mg/kg PO QD,68%
same,Percent Reduction vs Vehicle: Total splenocytes,splenocytes; 3.0 mg/kg PO QD,60%
same,Percent Reduction vs Vehicle: Treg cells,splenocytes; 3.0 mg/kg PO QD,81%
same,Percent Reduction vs Vehicle: pDC,splenocytes; 3.0 mg/kg PO QD,68%
same,Glomerular lesion score,NZBWF1 mice [1]; 0.3 mg/kg PO QD (compound 5 study),"glomerular lesion score less than to that of the vehicle control, but not significant"
same,Severity of glomerular lesions,NZBWF1 mice [1]; 1.0 mg/kg and 3.0 mg/kg PO QD (compound 5 study),dose-independent decrease in the severity of glomerular lesions
same,Tubular and interstitial lesions compared to cyclophosphamide,NZBWF1 mice [1]; 3.0 mg/kg PO QD (compound 5 study),not statistically different from treatment with cyclophosphamide
same,Tubular and interstitial lesions,NZBWF1 mice [1]; significant at 1.0 and 3.0 mg/kg (compound 5 study),dose-dependent decrease in tubular and interstitial lesions
same,Left kidney weight relative to vehicle,NZBWF1 mice [2]; 1.0 and 3.0 mg/kg PO QD,significantly reduced kidney weight relative to vehicle
same,Proteinuria scores relative to vehicle,NZBWF1 mice [3]; weeks 22-42,significant improvement relative to vehicle
same,Proteinuria scores compared to vehicle,NZBWF1 mice [3]; weeks 22-42,lower proteinuria scores in a dose-dependent fashion
same,Spleen weight relative to vehicle,NZBWF1 mice [4]; 3 mg/kg PO QD,trended lower
same,Spleen weight relative to vehicle,"NZBWF1 mice [4]; any dose 0.3, 1.0, 3.0 mg/kg PO QD","lower, but not significant relative to vehicle"
"CC(C)Oc1ccc(-c2nc(-c3cccc4c3CC[C@@H]4N)no2)cc1C#N [compound 148, (S)-5-(3-(1-amino-2,3-dihydro-1H-inden-4-yl)-1,2,4-oxadiazol-5-yl)-2-isopropoxy-benzonitrile]",Total splenocyte counts relative to vehicle,"splenocytes; all groups 0.3, 1.0, 3.0 mg/kg PO QD (compound 148 study)",reduced
same,Decrease of splenic pDC counts relative to vehicle,"splenocytes; at termination, 3.0 mg/kg PO QD (compound 148 study)",62%
same,Decrease in splenic CD4+ T cell population,splenocytes; [5],75%
same,Decrease in splenic Follicular (FO) B cells,splenocytes; [5],79%
same,Reduction in splenic CD8+ T cell population,splenocytes; [5],62%
same,Reduction in splenic CD19+ B cell population,splenocytes; [5],67%
same,Reduction in splenic Germinal Center (GC) B cell population,splenocytes; [5],51%
same,Reduction in splenic Marginal Zone (MZ) B cell population,splenocytes; [5],61%
same,Reduction in splenic activated CD4+ T cell population,splenocytes; [5],75%
same,Reduction in splenic naïve CD4+ T cells,splenocytes; [5],81%
same,Reduction in splenic plasma cell population,splenocytes; [5],30%
same,Glomerular lesion score,NZBWF1 mice [1]; 0.3 mg/kg PO QD (compound 148 study),glomerular lesion score similar to that of the vehicle control
same,Severity of glomerular lesions,NZBWF1 mice [1]; 1.0 mg/kg and 3.0 mg/kg PO QD (compound 148 study),dose-independent decrease in the severity of glomerular lesions
same,Tubular and interstitial lesions,NZBWF1 mice [1]; p<0.05 (compound 148 study),dose-dependent decrease in tubular and interstitial lesions; also recorded: not statistically different from treatment with cyclophosphamide
same,Combined kidney lesion score (glomerular plus tubular and interstitial) vs vehicle,"NZBWF1 mice [1]; all three treatment groups 0.3, 1.0, 3.0 mg/kg PO QD",dose-related decrease in combined kidney lesion score
same,Kidney weight relative to vehicle,"NZBWF1 mice [2]; 3.0 mg/kg PO QD, p<0.05",significantly reduced kidney weight relative to vehicle
same,Proteinuria scores relative to vehicle,"NZBWF1 mice [3]; weeks 23-42, p<0.05, 3 mg/kg",significant improvement relative to vehicle; also recorded: efficacy similar to cyclophosphamide
same,Proteinuria scores compared to vehicle,NZBWF1 mice [3]; weeks 23-42,lower proteinuria scores in a dose-dependent fashion
same,Spleen weight relative to vehicle,"NZBWF1 mice [4]; all groups 0.3, 1.0, 3.0 mg/kg PO QD",significantly lower
